The results in this text go back to patent publication US20150031668A1, “CHROMAN DERIVATIVES AS TRPM8 INHIBITORS” (AMGEN INC., priority 2013, published 2015).

Structures can show the parent of a compound that is named as a salt.

In the first test the target is T1, human TRPM8 (Homo sapiens, UniProt Q7Z2W7).
T1 construct: expressed in transfected cells; host or cells: Chinese hamster ovary (CHO) cells, T-REx tetracycline-inducible expression system (Invitrogen); co-transfected with pcDNA3.1 aequorin
T1 sequence (Q7Z2W7 whole entry): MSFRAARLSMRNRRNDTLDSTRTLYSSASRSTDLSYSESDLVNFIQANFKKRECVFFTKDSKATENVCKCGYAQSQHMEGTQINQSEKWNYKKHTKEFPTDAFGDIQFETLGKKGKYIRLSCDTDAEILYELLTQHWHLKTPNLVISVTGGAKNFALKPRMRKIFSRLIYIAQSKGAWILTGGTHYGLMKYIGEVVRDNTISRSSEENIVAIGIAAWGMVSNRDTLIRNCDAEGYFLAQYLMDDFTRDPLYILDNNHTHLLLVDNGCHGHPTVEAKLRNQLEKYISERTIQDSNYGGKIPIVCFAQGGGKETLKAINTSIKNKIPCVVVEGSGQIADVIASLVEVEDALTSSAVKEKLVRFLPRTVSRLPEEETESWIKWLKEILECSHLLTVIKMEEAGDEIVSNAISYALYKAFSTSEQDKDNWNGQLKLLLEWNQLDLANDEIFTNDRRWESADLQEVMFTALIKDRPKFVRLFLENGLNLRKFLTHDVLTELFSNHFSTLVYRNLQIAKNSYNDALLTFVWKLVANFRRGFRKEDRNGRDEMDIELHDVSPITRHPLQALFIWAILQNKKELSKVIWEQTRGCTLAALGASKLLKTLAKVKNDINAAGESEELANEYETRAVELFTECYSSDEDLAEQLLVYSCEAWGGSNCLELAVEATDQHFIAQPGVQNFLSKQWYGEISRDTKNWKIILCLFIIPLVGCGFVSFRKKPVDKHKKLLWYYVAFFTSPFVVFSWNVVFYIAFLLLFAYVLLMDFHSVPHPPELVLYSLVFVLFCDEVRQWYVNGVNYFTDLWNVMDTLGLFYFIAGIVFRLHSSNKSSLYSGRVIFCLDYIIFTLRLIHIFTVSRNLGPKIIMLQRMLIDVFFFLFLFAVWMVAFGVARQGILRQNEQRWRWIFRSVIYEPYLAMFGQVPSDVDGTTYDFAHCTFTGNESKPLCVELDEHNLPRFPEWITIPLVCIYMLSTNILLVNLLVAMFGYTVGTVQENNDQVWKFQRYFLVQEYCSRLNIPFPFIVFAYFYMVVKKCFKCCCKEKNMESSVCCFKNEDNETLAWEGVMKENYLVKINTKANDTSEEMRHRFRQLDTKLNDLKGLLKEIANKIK
The test can be described thus: Luminescence readout assay for measuring intracellular calcium (aequorin, CHO cells expressing human TRPM8; icilin, L-menthol or cold activation).
Conditions: not given
The class given is cell-based. The procedure, abridged:
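Activation was by 1 μM icilin, 100 μM L-menthol (test compound 2.5 min ahead) or cold buffer below 10° C (compound 1 min ahead). Calcium rise measured as aequorin luminescence in CHO cells with tetracycline-inducible human TRPM8.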
On the technique in general: A change in cytosolic calcium serves as a functional read-out for many receptors and channels.
Consider `O=C(N[C@]1(c2ccc(OC(F)(F)F)cc2)CCOc2cccnc21)c1ccc2[nH]cnc2c1` [Example 237, (S)-N-(4-(4-(trifluoromethoxy)phenyl)-3,4-dihydro-2H-pyrano[3,2-b]pyridin-4-yl)1lH-benzo[d]imidazole-5-carboxamide formate], for which the IC50 was 4.07 nM.

Consider `O=C1CCN(C(=O)N[C@]2(c3ccc(OC(F)(F)F)c(F)c3)CCOc3cccnc32)CC1` [Example 103, (S)-N-(4-(3-fluoro-4-(trifluoromethoxy)phenyl)-3,4-dihydro-2H-pyrano[3,2-b]pyridin-4-yl)-4-oxopiperidine-1-carboxamide], for which the IC50 stood at 278 nM.

Still in this test, the particulars now being: CHO cells expressing human TRPM8, icilin activation (1 μM), aequorin luminescence; read-out: hTRPM8 IC50.
As for `Cc1ccncc1-c1ccc([C@@]2(NC(=O)c3ccc(F)cc3)CCOc3cccnc32)cc1` [Example 132, (S)-4-fluoro-N-(4-(4-(4-methylpyridin-3-yl)phenyl)-3,4-dihydro-2H-pyrano[3,2-b]pyridin-4-yl)benzamide], the IC50 came out at 216 nM.

As for `O=C(N[C@]1(c2ccc(OC(F)(F)F)cc2)CCOc2cccnc21)C1Cc2ccccc2O1` (stereo partly drawn) [Example 246, N-((S)-4-(4-(trifluoromethoxy)phenyl)-3,4-dihydro-2H-pyrano[3,2-b]pyridin-4-yl)-2,3-dihydrobenzo furan-2-carboxamide formate], the IC50 was determined as 94.4 nM.

On to `O=C(N[C@]1(c2ccc(-c3cncnc3)cc2)CCOc2cccnc21)c1ccc(F)cc1` [Example 124, (S)-4-fluoro-N-(4-(4-(pyrimidin-5-yl)phenyl)-3,4-dihydro-2H-pyrano[3,2-b]pyridin-4-yl)benzamide], for which the IC50 was 1410 nM.

In the case of `O=C(N[C@]1(c2ccc(OC(F)(F)F)cc2F)CCOc2cccnc21)c1ccc(=O)[nH]c1` [Example 173, (S)-N-(4-(2-fluoro-4-(trifluoromethoxy)phenyl)-3,4-dihydro-2H-pyrano[3,2-b]pyridin-4-yl)-6-oxo-1,6-dihydropyridine-3-carboxamide], the IC50 was 475 nM.

Turning to `Cn1ccc2cc(C(=O)N[C@]3(c4ccc(C(F)(F)F)cc4)CCOc4cccnc43)ccc21` [Example 42, (S)-1-methyl-N-(4-(4-(trifluoromethyl)phenyl)-3,4-dihydro-2H-pyrano[3,2-b]pyridin-4-yl)-1H-indole-5-carboxamide], the IC50 was found to be 24 nM.

`O=C(N[C@]1(c2ccc(OC(F)(F)F)cc2)CCOc2cccnc21)c1nccc2ccccc12` [Example 247, (S)-N-(4-(4-(trifluoromethoxy)phenyl)-3,4-dihydro-2H-pyrano[3,2-b]pyridin-4-yl)isoquinoline-1-carboxamide formate]: the IC50 was found to be 30 nM.

With `CN(C)C(=O)c1ccc(-c2ccc([C@@]3(NC(=O)c4ccc(F)cc4)CCOc4cccnc43)cc2)cc1` [Example 137, (S)-4′-(4-(4-fluorobcnzamido)-3,4-dihydro-2H-pyrano[3,2-b]pyridin-4-yl)-N,N-dimethyl-[1,1′-biphenyl]-4-carboxamide], the half-maximal inhibitory concentration (IC50) stood at 1520 nM.

For `O=C(N[C@]1(c2ccc(OC(F)(F)F)c(F)c2)CCOc2cccnc21)c1ccc(-c2ncon2)cn1` [Example 282, (S)—N-(4-(3-fluoro-4-(trifluoromethoxy)phenyl)-3,4-dihydro-2H-pyrano[3,2-b]pyridin-4-yl)-5-(1,2,4-oxadiazol-3-yl)picolinamide], the IC50 is 7 nM.

For the compound `CC(=O)c1ccc(C(=O)N[C@]2(c3ccc(OC(F)(F)F)c(F)c3)CCOc3cccnc32)cc1` [Example 156, (S)-4-acetyl-N-(4-(3-fluoro-4-(trifluoromethoxy)phenyl)-3,4-dihydro-2H-pyrano[3,2-b]pyridin-4-yl)benzamide], the IC50 is 8 nM.

Regarding `O=C(Nc1ccc(F)cc1)N[C@]1(c2ccc(C(F)(F)F)cc2)CCOc2cccnc21` [Example 74, (S)-1-(4-fluorophenyl)-3-(4-(4-(trifluoromethyl)phenyl)-3,4-dihydro-2H-pyrano[3,2-b]pyridin-4-yl)urea], the IC50 stood at 25 nM.

`N#Cc1ccc(-c2ccc([C@@]3(NC(=O)c4ccc(F)cc4)CCOc4cccnc43)cc2)cc1` [Example 153, (S)—N-(4-(4′-cyano-[1,1′-biphenyl]-4-yl)-3,4-dihydro-2H-pyrano[3,2-b]pyridin-4-yl)-4-fluorobenzamide]: the IC50 amounted to 112 nM.

For the compound `O=C(N[C@]1(c2ccc(C(F)(F)F)c(F)c2)CCOc2cccnc21)c1ccccc1` (single isomer, unassigned) [Example 19], the IC50 is 12 nM.

As to `Cc1cc(C(=O)N[C@]2(c3ccc(C(F)(F)F)cc3)CCOc3cccnc32)ccc1C(=O)O` [Example 288, (S)-2-methyl-4-((4-(4-(trifluoromethyl)phenyl)-3,4-dihydro-2H-pyrano[3,2-b]pyridin-4-yl)carbamoyl)benzoic acid], the IC50 was 45 nM.

On to `O=C(N[C@]1(c2ccc(Cl)c(Cl)c2)CCOc2cccnc21)c1ccccc1` (single isomer, unassigned) [Example 3], for which the IC50 turned out to be 25 nM.

`O=C1CCc2cc(C(=O)N[C@]3(c4ccc(OC(F)(F)F)c(F)c4)CCOc4cccnc43)ccc2N1` [Example 54, (S)-N-(4-(3-fluoro-4-(trifluoromethoxy)phenyl)-3,4-dihydro-2H-pyrano[3,2-b]pyridin-4-yl)-2-oxo-1,2,3,4-tetrahydroquinoline-6-carboxamide]: the IC50 was 11 nM.

Take `O=C(NC1(c2ccccc2)CCOc2cccnc21)c1ccc(F)cc1` (centres unmarked) [Example 11, 4-fluoro-N-(4-phenyl-3,4-dihydro-2H-pyrano[3,2-b]pyridin-4-yl)benzamide]: the concentration for half-maximal inhibition (IC50) stood at 2570 nM.

For `O=C(N[C@]1(c2ccc(C(F)(F)F)cc2)CCOc2cccnc21)c1ccc2cccnc2c1` [Example 56, (S)-N-(4-(4-(trifluoromethyl)phenyl)-3,4-dihydro-2H-pyrano[3,2-b]pyridin-4-yl)quinoline-7-carboxamide], the IC50 amounted to 21 nM.

For `O=C(N[C@]1(c2ccc(C(F)(F)F)cc2)CCOc2cccnc21)c1ccc2[nH]c(=O)oc2c1` (single isomer, unassigned) [Example 20], the IC50 was found to be 10 nM.

With `O=C(N[C@]1(c2ccc(-c3ccccc3CO)cc2)CCOc2cccnc21)c1ccc(F)cc1` [Example 128, (S)-4-fluoro-N-(4-(2′-(hydroxymethyl)-[1,1′-biphenyl]-4-yl)-3,4-dihydro-2H-pyrano[3,2-b]pyridin-4-yl)benzamide], the IC50 turned out to be 501 nM.

In the case of `CN(C)C(=O)c1cccc(-c2ccc([C@@]3(NC(=O)c4ccc(F)cc4)CCOc4cccnc43)cc2)c1` [Example 129, (S)-4′-(4-(4-fluorobenzamido)-3,4-dihydro-2H-pyrano[3,2-b]pyridin-4-yl)-N,N-dimethyl-[1,1′-biphenyl]-3-carboxamide], the concentration for half-maximal inhibition (IC50) is 2600 nM.

For the compound `CNC(=O)c1ccc(C(=O)N[C@]2(c3ccc(OC(F)(F)F)c(F)c3)CCOc3cccnc32)cc1C` [Example 296, (S)—N4-(4-(3-fluoro-4-(trifluoromethoxy)phenyl)-3,4-dihydro-2H-pyrano[3,2-b]pyridin-4-yl)-N1,2-dimethylterephthalamide], the IC50 stood at 8 nM.

With `O=C(N[C@]1(c2ccc(OC(F)(F)F)c(F)c2)CCOc2cccnc21)c1ccc(C(=O)O)c(NC2CC2)c1` [Example 302, (S)-2-(cyclopropylamino)-4-((4-(3-fluoro-4-(trifluoromethoxy)phenyl)-3,4-dihydro-2H-pyrano[3,2-b]pyridin-4-yl)carbamoyl)benzoic acid], the IC50 was 4 nM.

`O=C(Nc1ccc(F)nc1)N[C@]1(c2ccc(OC(F)(F)F)c(F)c2)CCOc2cccnc21` [Example 66, (S)-1-(4-(3-fluoro-4-(trifluoromethoxy)phenyl)-3,4-dihydro-2H-pyrano[3,2-b]pyridin-4-yl)-3-(6-fluoropyridin-3-yl)urea 2,2,2-trifluoroacetate]: the half-maximal inhibitory concentration (IC50) worked out at 17 nM.

Turning to `O=C(N[C@]1(c2ccc(OC(F)(F)F)cc2)CCOc2cccnc21)c1ccsn1` [Example 232, (S)-N-(4-(4-(trifluoromethoxy)phenyl)-3,4-dihydro-2H-pyrano[3,2-b]pyridin-4-yl)isothiazole-3-carboxamide formate], the IC50 was found to be 25.8 nM.

In the case of `O=C(N[C@]1(c2ccc(OC(F)(F)F)cc2)CCOc2cccnc21)c1n[nH]c2ncccc12` [Example 242, (S)-N-(4-(4-(trifluoromethoxy)phenyl)-3,4-dihydro-2H-pyrano[3,2-b]pyridin-4-yl)-1H-pyrazolo[3,4-b] pyridine-3-carboxamide formate], the IC50 is 5.55 nM.

`Cc1cc([C@@]2(NC(=O)c3ccc(=O)[nH]c3)CCOc3cccnc32)ccc1OC(F)(F)F` [Example 199, (S)-N-(4-(3-methyl-4-(trifluoromethoxy)phenyl)-3,4-dihydro-2H-pyrano[3,2-b]pyridin-4-yl)-6-oxo-1,6-dihydropyridine-3-carboxamide]: the half-maximal inhibitory concentration (IC50) came out at 12 nM.

On to `NC(=O)c1cc(-c2ccc([C@@]3(NC(=O)c4ccc(F)cc4)CCOc4cccnc43)cc2)ccc1Cl` [Example 123, (S)-4-chloro-4′-(4-(4-fluorobenzamido)-3,4-dihydro-2H-pyrano[3,2-b]pyridin-4-yl)-[1,1′-biphenyl]-3-carboxamide], for which the IC50 came to 3560 nM.

For `O=C(N[C@]1(c2ccc(OC(F)(F)F)c(F)c2)CCOc2cccnc21)c1ccc(Br)o1` [Example 208, (S)-5-bromo-N-(4-(3-fluoro-4-(trifluoromethoxy)phenyl)-3,4-dihydro-2H-pyrano[3,2-b]pyridin-4-yl)furan-2-carboxamide], the IC50 was 11 nM.

Turning to `O=C(N[C@]1(c2ccc(OC(F)(F)F)c(F)c2)CCOc2cccnc21)c1cnsc1` [Example 190, (S)-N-(4-(3-fluoro-4-(trifluoromethoxy)phenyl)-3,4-dihydro-2H-pyrano[3,2-b]pyridin-4-yl) isothiazole-4-carboxamide], the IC50 came to 152 nM.

Turning to `O=C(O)c1ccc(C(=O)N[C@]2(c3ccc(OC(F)(F)F)cc3F)CCOc3cccnc32)nc1` [Example 312, (S)-6-((4-(2-fluoro-4-(trifluoro-methoxy)phenyl)-3,4-dihydro-2H-pyrano[3,2-b]pyridin-4-yl)carbamoyl) nicotinic acid], the IC50 stood at 104 nM.

For orientation: IC50 means the concentration needed to halve the response being measured.
